Measured values: US20240270821A1, “GIP/GLP1/GCG TRI-RECEPTOR AGONISTS AND USES THEREOF” (priority 2023, published 2024)
Like-named read-outs stand apart in the source and are kept apart here. Each block holds one molecule with its values, some of them ahead of it. Starred links: 1 amine or outer side, 2 acyl side, 3 side chain; linkers in the order of their positions; H or OH if unused. Non-standard residues stand in square brackets, D forms with d. Residues, ends and D or L forms follow the SMILES beside them. Groups on a side chain read outwards from the residue. No end group written: not given here. *: point of attachment. C18 diacid = O=C(O)CCCCCCCCCCCCCCCCC(=O)*; αMePhe(2-F) = C[C@](N)(Cc1ccccc1F)C(=O)O; γGlu = O=C(O)[C@H](CCC(=O)[*:2])N[*:1]; αMe4Pal = C[C@](N)(Cc1ccncc1)C(=O)O; αMeY = C[C@](N)(Cc1ccc(O)cc1)C(=O)O; αMeF = C[C@](N)(Cc1ccccc1)C(=O)O; 4Pal = N[C@@H](Cc1ccncc1)C(=O)O; αMeL = CC(C)C[C@](C)(N)C(=O)O; αMeS = C[C@](N)(CO)C(=O)O; Orn = NCCC[C@H](N)C(=O)O; AEEA = NCCOCCOCC(=O)O; Aib = CC(C)(N)C(=O)O

How the values were obtained:
Format in all cases: cell-based
[1] = molecular target: human GcgR (Homo sapiens, UniProt P47871); assay: Functional cAMP activity in the presence of 1% HSA; settings: read-out: cAMP Rel EC50, hGcgR
[2] = molecular target: hGcgR (Homo sapiens, UniProt P47871); assay: Functional cAMP activation in the presence of 0.1% casein (no HSA); settings: read-out: Relative cAMP EC50, hGcgR;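 note: intracellular cAMP rise after 30 min at 37 °C, read by HTRF against a cAMP standard curve, scaled from buffer only (0%) to maximal control ligand response (100%)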
[3] = molecular target: T1, hGIPR (Homo sapiens, UniProt P48546); assay: as above; settings: read-out: Relative cAMP EC50, hGIPR;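 note: intracellular cAMP rise after 30 min at 37 °C read by HTRF against a standard curve, scaled between buffer alone (0%) and top control ligand concentration (100%), four-parameter fit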
T1 sequence (P48546 22-466): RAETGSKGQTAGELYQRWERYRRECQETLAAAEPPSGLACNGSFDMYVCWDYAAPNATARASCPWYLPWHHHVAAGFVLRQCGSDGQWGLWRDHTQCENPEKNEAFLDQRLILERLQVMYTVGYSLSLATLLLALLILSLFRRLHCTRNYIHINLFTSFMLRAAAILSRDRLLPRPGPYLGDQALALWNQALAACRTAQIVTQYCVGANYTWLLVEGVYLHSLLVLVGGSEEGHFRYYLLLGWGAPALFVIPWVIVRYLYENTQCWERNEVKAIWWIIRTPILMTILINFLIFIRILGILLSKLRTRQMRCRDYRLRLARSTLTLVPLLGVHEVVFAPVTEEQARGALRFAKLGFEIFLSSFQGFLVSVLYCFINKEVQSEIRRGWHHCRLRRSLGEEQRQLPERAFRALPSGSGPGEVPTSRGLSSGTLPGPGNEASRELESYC

[4] = molecular target: T1, hGIPR; assay: Functional cAMP activity in the presence of 1% HSA; settings: read-out: cAMP Rel EC50, hGIPR
[5] = molecular target: T2, hGLP-1R (Homo sapiens, UniProt P43220); assay: Functional cAMP activation in the presence of 0.1% casein (no HSA); settings: read-out: Relative cAMP EC50, hGLP-1R;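 note: intracellular cAMP rise after 30 min at 37 °C read by HTRF, normalized between buffer only (0%) and maximal control ligand (100%), four-parameter variable-slope fit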
[6] = molecular target: T2, hGLP-1R; assay: Functional cAMP activity in the presence of 1% HSA; settings: read-out: cAMP Rel EC50, hGLP-1R
[7] = 0.1% casein, no HSA, geometric mean
[8] = in the presence of 0.1% casein (no HSA), geometric mean

T2 sequence (P43220 24-463): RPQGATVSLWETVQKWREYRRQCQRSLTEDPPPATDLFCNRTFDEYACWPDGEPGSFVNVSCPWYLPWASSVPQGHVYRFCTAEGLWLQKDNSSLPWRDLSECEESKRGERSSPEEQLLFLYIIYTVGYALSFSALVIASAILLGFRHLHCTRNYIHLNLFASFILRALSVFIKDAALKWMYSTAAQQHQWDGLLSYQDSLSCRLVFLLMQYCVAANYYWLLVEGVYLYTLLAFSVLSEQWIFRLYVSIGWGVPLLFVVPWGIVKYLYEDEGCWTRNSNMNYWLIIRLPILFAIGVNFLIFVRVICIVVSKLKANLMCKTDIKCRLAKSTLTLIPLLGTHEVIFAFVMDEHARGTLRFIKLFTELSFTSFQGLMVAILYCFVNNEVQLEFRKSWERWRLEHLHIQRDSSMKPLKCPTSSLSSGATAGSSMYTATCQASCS
Chain of hGcgR (P47871 26-477): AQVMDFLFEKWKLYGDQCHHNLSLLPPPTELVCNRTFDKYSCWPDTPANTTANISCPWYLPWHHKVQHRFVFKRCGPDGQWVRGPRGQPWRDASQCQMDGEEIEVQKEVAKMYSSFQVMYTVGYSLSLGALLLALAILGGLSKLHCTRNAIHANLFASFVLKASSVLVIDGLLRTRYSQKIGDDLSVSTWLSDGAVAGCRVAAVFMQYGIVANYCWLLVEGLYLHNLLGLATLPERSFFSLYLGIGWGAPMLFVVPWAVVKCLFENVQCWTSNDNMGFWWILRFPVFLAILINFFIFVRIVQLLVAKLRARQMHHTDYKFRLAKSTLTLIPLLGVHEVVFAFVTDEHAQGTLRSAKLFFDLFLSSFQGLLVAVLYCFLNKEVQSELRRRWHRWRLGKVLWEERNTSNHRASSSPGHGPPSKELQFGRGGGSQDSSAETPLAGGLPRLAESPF
Chain of human GcgR (P47871 26-477): as above

EC50 [1]: 124 nM | EC50 [2, 7]: 0.97 nM | EC50 [3, 7]: 0.00819 nM | EC50 [4]: 0.565 nM | EC50 [5, 7]: 0.41 nM | EC50 [6]: 37.7 nM
Molecule: H-Y[Aib]QGT[αMePhe(2-F)]TSD[4Pal]SI[αMeL]LD[Orn][Orn]([γGlu-γGlu-C18 diacid])AQ[αMe4Pal][Orn]FI[dE][αMeY]LIEGGPSSGEPPPETE-NH2 [Example 1209]

Molecule: Y[Aib]QGT[αMePhe(2-F)]TSD[4Pal][αMeS]I[αMeL]LD[Orn]K([γGlu-γGlu-C18 diacid])AQ[αMe4Pal]EFI[dE][αMeY]LVEGGPSSGAPPPSGSE-NH2 [Example 1162]
EC50 [1]: 199 nM | EC50 [2, 8]: 2.55 nM | EC50 [3, 8]: 0.00818 nM | EC50 [4]: 0.656 nM | EC50 [5, 8]: 0.372 nM | EC50 [6]: 34.5 nM

Molecule: CC[C@H](C)[C@H](NC(=O)[C@H](Cc1ccccc1)NC(=O)[C@H](C)NC(=O)C(C)(C)NC(=O)[C@H](CCC(N)=O)NC(=O)[C@H](C)NC(=O)[C@H](CCCCNC(=O)COCCOCCNC(=O)CC[C@H](NC(=O)CCCCCCCCCCCCCCCCC(=O)O)C(=O)O)NC(=O)[C@H](CCCCN)NC(=O)[C@H](CC(=O)O)NC(=O)[C@H](CC(C)C)NC(=O)[C@H](CC(C)C)NC(=O)[C@@H](NC(=O)[C@](C)(CO)NC(=O)[C@H](Cc1ccc(O)cc1)NC(=O)[C@H](CC(=O)O)NC(=O)[C@H](CO)NC(=O)[C@@H](NC(=O)[C@](C)(Cc1ccccc1)NC(=O)[C@@H](NC(=O)CNC(=O)[C@H](CCC(N)=O)NC(=O)C(C)(C)NC(=O)[C@@H](N)Cc1ccc(O)cc1)[C@@H](C)O)[C@@H](C)O)[C@@H](C)CC)C(=O)N[C@@H](CCC(=O)O)C(=O)N[C@@H](Cc1ccc(O)cc1)C(=O)N[C@@H](CC(C)C)C(=O)N[C@@H](CCC(=O)O)C(=O)N[C@@H](CCC(=O)O)C(=O)NCC(=O)NCC(=O)N1CCC[C@H]1C(=O)N[C@@H](CO)C(=O)N[C@@H](CO)C(=O)NCC(=O)N[C@@H](C)C(=O)N1CCC[C@H]1C(=O)N1CCC[C@H]1C(=O)N1CCC[C@H]1C(=O)N[C@@H](CO)C(N)=O [Example 393] (H-Y[Aib]QGT[αMeF]TSDY[αMeS]ILLDKK([AEEA-γGlu-C18 diacid])AQ[Aib]AFIEYLEEGGPSSGAPPPS-NH2)
EC50 [1]: 151 nM | EC50 [2]: 0.947 nM | EC50 [3]: 0.0458 nM | EC50 [4]: 12.4 nM | EC50 [5]: 0.211 nM | EC50 [6]: 29.6 nM

Molecule: H-Y[Aib]QGTFTSDFS[Orn][αMeL]LDKK([AEEA-γGlu-C18 diacid])AQ[Aib]AFIEWLLEGGPSSGAPPPEG[4Pal]-NH2 [Example 262]
EC50 [1]: 720 nM | EC50 [2, 8]: 9.77 nM | EC50 [3, 8]: 0.232 nM | EC50 [4]: 40.4 nM | EC50 [5, 8]: 4.39 nM | EC50 [6]: 400 nM

Molecule: H-Y[Aib]QGTFTSD[4Pal]SQ[αMeL]LDKK([AEEA-γGlu-C18 diacid])AQ[Aib]AFIE[αMeY]LLEGGPSSGAPPPSGS-NH2 [Example 910]
EC50 [1]: 2640 nM | EC50 [2, 8]: 9.76 nM | EC50 [3, 8]: 0.111 nM | EC50 [4]: 25.7 nM | EC50 [5, 8]: 1.49 nM | EC50 [6]: 239 nM

Molecule: H-Y[Aib]QGTFTSDFS[Orn][αMeL]LDKK([γGlu-γGlu-γGlu-C18 diacid])AQ[Aib]AFIEYLLE[Aib]GPSSGAPPPSGS-NH2 [Example 202]
EC50 [1]: 697 nM | EC50 [2, 8]: 11.4 nM | EC50 [3, 8]: 0.0965 nM | EC50 [4]: 11.7 nM | EC50 [5, 8]: 4.79 nM | EC50 [6]: 376 nM

Molecule: CC[C@H](C)[C@H](NC(=O)[C@H](Cc1ccccc1)NC(=O)[C@H](C)NC(=O)[C@](C)(Cc1ccncc1)NC(=O)[C@H](CCC(N)=O)NC(=O)[C@H](C)NC(=O)[C@H](CCCCNC(=O)CC[C@H](NC(=O)CC[C@H](NC(=O)CCCCCCCCCCCCCCCCC(=O)O)C(=O)O)C(=O)O)NC(=O)[C@H](CCCN)NC(=O)[C@H](CC(=O)O)NC(=O)[C@H](CC(C)C)NC(=O)[C@](C)(CC(C)C)NC(=O)[C@H](CCC(N)=O)NC(=O)[C@H](CO)NC(=O)[C@H](Cc1ccncc1)NC(=O)[C@H](CC(=O)O)NC(=O)[C@H](CO)NC(=O)[C@@H](NC(=O)[C@H](Cc1ccccc1)NC(=O)[C@@H](NC(=O)CNC(=O)[C@H](CCC(N)=O)NC(=O)C(C)(C)NC(=O)[C@@H](N)Cc1ccc(O)cc1)[C@@H](C)O)[C@@H](C)O)C(=O)N[C@@H](CCC(=O)O)C(=O)N[C@@H](Cc1ccc(O)cc1)C(=O)N[C@@H](CC(C)C)C(=O)N[C@H](C(=O)N[C@@H](CCC(=O)O)C(=O)N[C@H](C)C(=O)NCC(=O)N1CCC[C@H]1C(=O)N[C@@H](CO)C(=O)N[C@@H](CO)C(=O)NCC(=O)N[C@@H](C)C(=O)N1CCC[C@H]1C(=O)N1CCC[C@H]1C(=O)N1CCC[C@H]1C(=O)N[C@@H](CO)C(=O)NCC(=O)N[C@@H](CO)C(=O)N[C@@H](CCC(=O)O)C(N)=O)[C@@H](C)CC [Example 1023]
EC50 [1]: 856 nM | EC50 [2, 8]: 3.82 nM | EC50 [3, 8]: 0.235 nM | EC50 [4]: 26 nM | EC50 [5, 8]: 1.47 nM | EC50 [6]: 230 nM
